Earlier results on 3 molecules are cited in US12239625B2, “Modified release gamma-hydroxybutyrate formulations having improved pharmacokinetics” (Flamel Ireland Limited, priority 2016, dated 2025).

In data set [1] the test system is plasma proteins. The note with it: GHB concentrations 3 mcg/mL to 300 mcg/mL.
Data set [2] relates to rat. The note with it: 2-year study.
Data set [3] concerns mouse. The note with it: 2-year study.
Data set [4] relates to male and female rats. The conditions noted are these: oral 150, 350, or 1,000 mg/kg/day prior to and throughout mating.
For data set [5] the following is noted: single oral dose 25 mg/kg.
In data set [6] the test system is rats.
The subject of data set [7] is pregnant rats.
For data set [8], the target named is CYP2D6 (Homo sapiens, UniProt P10635). The note with it: up to 3 mM (378 mcg/mL).
The target of data set [9] is T1, CYP1A2 (Homo sapiens, UniProt P05177).
T1 sequence (P05177 1-516): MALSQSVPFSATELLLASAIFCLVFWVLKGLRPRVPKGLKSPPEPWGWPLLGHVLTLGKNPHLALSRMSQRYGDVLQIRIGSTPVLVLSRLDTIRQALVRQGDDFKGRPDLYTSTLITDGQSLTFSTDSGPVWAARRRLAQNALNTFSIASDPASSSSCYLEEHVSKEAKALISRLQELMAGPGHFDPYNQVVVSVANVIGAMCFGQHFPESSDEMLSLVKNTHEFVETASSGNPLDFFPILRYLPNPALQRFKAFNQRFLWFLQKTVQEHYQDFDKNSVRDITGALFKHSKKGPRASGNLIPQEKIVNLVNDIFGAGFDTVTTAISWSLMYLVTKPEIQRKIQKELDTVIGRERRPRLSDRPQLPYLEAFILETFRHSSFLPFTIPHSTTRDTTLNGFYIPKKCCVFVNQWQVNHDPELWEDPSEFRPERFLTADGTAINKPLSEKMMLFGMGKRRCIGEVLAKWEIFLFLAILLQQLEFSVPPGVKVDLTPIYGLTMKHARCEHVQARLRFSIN
The conditions noted are these: up to 3 mM (378 mcg/mL).

The target in data set [10] is CYP2C19 (Homo sapiens, UniProt P33261). The note with it: up to 3 mM (378 mcg/mL).
In data set [11] the test system is rat. The conditions noted are these: in vivo.
Data set [12] relates to CYP3A. The note with it: up to 3 mM (378 mcg/mL).
For data set [13], the system named is mammalian cells. The note with it: in vitro.
The target of data set [14] is CYP2E1 (Homo sapiens, UniProt P05181). The note with it: up to 3 mM (378 mcg/mL).
The conditions of data set [15]: 6 g per day as two 3 g doses; ibuprofen 800 mg four times per day.
Data set [16] has as its system pregnant rabbits.
The test system of data set [17] is patients with narcolepsy. The conditions noted are these: estimated dose of 150 g.
The subject of data set [18] is bacterial gene mutation. The conditions noted are these: in vitro.
In data set [19] the target is CYP2C9 (Homo sapiens, UniProt P11712). The conditions noted are these: up to 3 mM (378 mcg/mL).
Data set [20] has as its system rats. The source holds these as a separate data set.

Read-outs that look alike come from different tables or passages of the source.

CYP2D6, sequence (P10635 whole entry): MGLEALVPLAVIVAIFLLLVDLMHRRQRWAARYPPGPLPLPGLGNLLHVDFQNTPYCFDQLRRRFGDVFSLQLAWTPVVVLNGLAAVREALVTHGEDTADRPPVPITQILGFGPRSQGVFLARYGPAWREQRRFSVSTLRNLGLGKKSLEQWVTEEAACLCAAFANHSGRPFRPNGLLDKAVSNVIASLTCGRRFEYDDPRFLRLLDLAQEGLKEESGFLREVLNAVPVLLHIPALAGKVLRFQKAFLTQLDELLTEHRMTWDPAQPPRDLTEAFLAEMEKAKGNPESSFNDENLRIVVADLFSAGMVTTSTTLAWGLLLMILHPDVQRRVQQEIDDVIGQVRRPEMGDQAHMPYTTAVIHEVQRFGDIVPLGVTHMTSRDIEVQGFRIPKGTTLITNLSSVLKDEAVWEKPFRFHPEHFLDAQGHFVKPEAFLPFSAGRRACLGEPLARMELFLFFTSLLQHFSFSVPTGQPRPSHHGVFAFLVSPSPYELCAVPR
CYP2C19, sequence (P33261 whole entry): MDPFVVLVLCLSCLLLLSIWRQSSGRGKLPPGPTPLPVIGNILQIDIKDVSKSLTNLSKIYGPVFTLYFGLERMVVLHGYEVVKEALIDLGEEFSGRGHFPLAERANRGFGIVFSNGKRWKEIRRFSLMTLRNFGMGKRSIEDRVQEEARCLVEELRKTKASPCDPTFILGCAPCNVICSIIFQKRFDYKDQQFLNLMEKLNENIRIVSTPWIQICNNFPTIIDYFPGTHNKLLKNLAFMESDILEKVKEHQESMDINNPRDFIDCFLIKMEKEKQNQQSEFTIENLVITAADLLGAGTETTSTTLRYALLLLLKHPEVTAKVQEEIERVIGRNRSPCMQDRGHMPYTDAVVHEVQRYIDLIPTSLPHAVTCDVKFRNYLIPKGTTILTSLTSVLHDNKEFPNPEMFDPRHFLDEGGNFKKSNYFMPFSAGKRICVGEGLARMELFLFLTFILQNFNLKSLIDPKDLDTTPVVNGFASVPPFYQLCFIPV
CYP2C9, sequence (P11712 whole entry): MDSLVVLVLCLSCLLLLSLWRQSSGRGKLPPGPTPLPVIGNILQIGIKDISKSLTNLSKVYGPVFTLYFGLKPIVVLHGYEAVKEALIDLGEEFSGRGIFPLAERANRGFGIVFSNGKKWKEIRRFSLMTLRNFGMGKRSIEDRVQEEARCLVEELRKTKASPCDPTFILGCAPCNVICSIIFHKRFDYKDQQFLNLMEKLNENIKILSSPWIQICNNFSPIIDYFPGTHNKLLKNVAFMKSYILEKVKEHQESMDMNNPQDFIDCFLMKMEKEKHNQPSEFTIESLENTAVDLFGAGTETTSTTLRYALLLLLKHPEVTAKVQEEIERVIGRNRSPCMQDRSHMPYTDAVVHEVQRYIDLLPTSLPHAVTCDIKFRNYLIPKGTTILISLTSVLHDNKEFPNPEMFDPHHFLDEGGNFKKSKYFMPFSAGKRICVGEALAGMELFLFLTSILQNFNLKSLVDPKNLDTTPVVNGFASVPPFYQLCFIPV
CYP2E1, sequence (P05181 whole entry): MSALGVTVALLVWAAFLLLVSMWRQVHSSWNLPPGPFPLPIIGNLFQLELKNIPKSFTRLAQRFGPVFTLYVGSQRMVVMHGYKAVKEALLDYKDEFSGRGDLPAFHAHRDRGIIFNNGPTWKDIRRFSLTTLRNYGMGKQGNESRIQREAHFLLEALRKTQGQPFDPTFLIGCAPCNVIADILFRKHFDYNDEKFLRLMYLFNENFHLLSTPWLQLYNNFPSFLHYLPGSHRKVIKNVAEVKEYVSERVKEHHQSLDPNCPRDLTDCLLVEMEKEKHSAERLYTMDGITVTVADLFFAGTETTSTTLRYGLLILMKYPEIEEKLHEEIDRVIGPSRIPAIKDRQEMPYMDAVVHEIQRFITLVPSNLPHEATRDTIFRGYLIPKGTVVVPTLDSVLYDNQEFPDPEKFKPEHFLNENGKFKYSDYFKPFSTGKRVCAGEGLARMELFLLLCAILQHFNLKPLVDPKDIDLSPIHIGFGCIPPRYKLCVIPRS

As to `O=C(O)CCCO` [GHB, gamma-hydroxybutyrate], in data set [1], the “Bound to plasma proteins” value is given as “less than 1%”. Besides, under “after oral administration of sodium oxybate”, the “Excretion in human milk” value is listed as “excreted in human milk”. Under “human, in vivo”, the “Apparent volume of distribution” value was 0.19 to 0.384 L/kg and the Elimination half-life is 30 to 60 min. Besides, the “Unchanged drug in human urine” value (within 6 to 8 hours after dosing) is on record as “less than 5%”.

As to `O=C1CCCO1` [gamma-butyrolactone], the Carcinogenic activity result in data set [2] and in data set [3] was “no clear evidence of carcinogenic activity” each time.

Turning to `O=C([O-])CCCO.[Na+]` [sodium oxybate, sodium 4-hydroxybutyrate], the Effects on fertility entry in data set [4] is listed as “no adverse effects on fertility”. The Mean elimination half-life in [5] (Class A) was 32 min; in data set [5] (Class C) it was 59 min; in data set [5] (control patients), 22 min. Besides, the “Body weight gain and sexual maturation” value in data set [6] (at the highest dose tested (900 mg/kg/day)) is “Reduced body weight gain in males and females and delayed sexual maturation in males”. For the same molecule, in [6] (oral 0, 100, 300, or 900 mg/kg/day, postnatal days 21 through 90), the Mortality result is given as “mortality was observed at the two highest closes tested”. Further, the Developmental toxicity entry is given as “no clear evidence of developmental toxicity” in data set [7] (oral 150, 350, or 1,000 mg/kg/day throughout organogenesis) and “no clear evidence of developmental toxicity” in data set [16] (oral 300, 600, or 1,200 mg/kg/day throughout organogenesis). Further, the “Highest dose tested as multiple of the MRHD (9 g per night) on mg/m2 basis” value is “approximately 1 times” in [7] (rats) and ~3 times in data set [16] (rabbits). For the same molecule, in data set [8], the “Inhibition of CYP2D6 activity” value was “does not significantly inhibit”. Moreover, the “Inhibition of CYP1A2 activity” value in [9] is reported as “does not significantly inhibit”. The “Gender differences in the pharmacokinetics of GHB” value (18 female and 18 male healthy adults, oral dose 4.5 g) is listed as “no gender differences”. Moreover, the “Inhibition of CYP2C19 activity” value in [10] is given as “does not significantly inhibit”. Besides, the Micronucleus entry in data set [11] is reported as “negative”. Also, in data set [12], the “Inhibition of CYP3A activity” value is listed as “does not significantly inhibit”. In data set [13], the Chromosomal aberration result is on record as “negative”. Besides, the “Inhibition of CYP2E1 activity” value in [14] is “does not significantly inhibit”. In addition, the “Systemic exposure to GHB on co-administration with ibuprofen” value in [15] is “comparable systemic exposure to GHB”. Further, the Overdose case result in [17] was “unresponsive with brief periods of apnea”. For the same molecule, the Bacterial gene mutation entry in data set [18] was “negative”. Moreover, the “Inhibition of CYP2C9 activity” value in data set [19] is reported as “does not significantly inhibit”. Moreover, the Tumors entry in data set [20] (oral doses up to 1,000 mg/kg/day for 83 (males) or 104 (females) weeks) was “no increase in tumors”. In addition, the “Plasma exposure (AUC) at the highest dose tested as multiple of that in humans at the MRHD” value in data set [20] (rats) is recorded as 2 times.
